Reference: patent publication US20030232790A1, “Dihydro-2h-napthalene-1-one inhibitors of ras farnesyl transferase” (priority 2002, published 2003)
Read-outs that look alike come from different tables or passages of the source.

How the values were obtained:
[1] = target: T1, protein:farnesyl transferase (PFT), SF9 affinity purified rat FPT (Rattus norvegicus, UniProt Q02293+Q04631); assay: PFT (FPT) inhibitory activity, radiolabeled farnesyl pyrophosphate / biotinyl peptide streptavidin bead assay; assay type: biochemical
T1 construct: made in house
Description: The pharmaceutical utility of compounds of this invention was established by the following standard assay which measures inhibition of the enzyme protein:farnesyl transferase (PFT), also referred to as farnesyl protein transferase (FPT).
The PFT (or FPT) inhibitory activity of compounds of the present invention was assayed in HEPES buffer (pH 7.4) containing 5 mM potassium phosphate and 20 μM ZnCl2. The solution also contained 5 mM DTT (dithiothreitol), 5 mM MgCl2, and 0.1% PEG 8000. Assays were performed in 96 well plates (Wallec) and employed solutions composed of varying concentrations of a compound of the present invention in 10% DMSO (dimethylsulfoxide). Upon addition of both substrates, radiolabeled farnesyl pyrophosphate ([1^3H], specific activity 15-30 Ci/mmol, final concentration 134 nM) and (biotinyl)-Ahe-Thr-Lys-Cys-Val-Ile-Met ([3aS[3a alpha, 4 beta, 6a alpha]-hexahydro-2-oxo-1H-thieno[3,4-d]imidazole-5-pentanoic acid]-[7-aminoheptanoic acid]-Thr-Lys-Cys-Val-Ile-Met) (Ahe is 7-aminoheptanoic acid, Thr is threonine, Lys is lysine, Cys is cysteine, Val is valine, Ile is isoleucine, and Met is methionine) (final concentration 0.2 μM), the enzyme reaction was started by addition of SF9 affinity purified rat FPT. After incubation at 30° C. for 30 minutes, the reaction was terminated by diluting the mixture 2.5-fold with a stop buffer containing 1.5 M magnesium acetate, 0.2 M H3PO4, 0.5% BSA (bovine serum albumin), and strepavidin beads (Amersham) at a concentration of 1.3 mg/mL. After allowing the plate to settle for 30 minutes at room temperature, radioactivity was quantitated on a microBeta counter (Model 1450, Wallec). The assay was also carried out without 5 mM potassium phosphate.

[2] = test system: mammary and salivary carcinomas; conditions: daily administration; ras transgenic mice; cited from earlier work
[3] = test system: EJ-1 human bladder carcinoma, HT18O human fibrosarcoma, and human colon carcinoma xenografts; conditions: 100 mg/kg; xenografts in nude mice; cited from earlier work
[4] = test system: human lung carcinoma with K-ras mutation and p53 deletion; conditions: nude mice; cited from earlier work
[5] = HEPES buffer pH 7.4 with 5 mM potassium phosphate, read-out: IC50 (μm) Hepes ± 5 mM Phosphate
[6] = HEPES buffer pH 7.4 without 5 mM potassium phosphate, read-out: IC50 (μm) Hepes

Row | SMILES | IC50 [1, 5] | IC50 [1, 6] | other results
1 | COc1ccc(Cn2cncc2CCOc2ccc3c(c2)CCCC3=O)cc1C [Compound 12, 6-{2-[3-(4-methoxy-3-methyl-benzyl)-3H-imidazol-4-yl]-ethoxy}-3,4-dihydro-2H-naphthalen-1-one] | 22 nM | 24 nM | 
2 | O=C1CCCc2c1ccc(OCCc1cncn1Cc1ccccc1)c2CCc1ccccc1 [Compound 3, 6-[2-(3-benzyl-3H-imidazol-4-yl)-ethoxy]-5-phenethyl-3,4-dihydro-2H-naphthalen-1-one] | 52 nM | 73 nM | 
3 | CC(C)S(=O)(=O)Cc1c(OCCc2cncn2Cc2ccc(C#N)cc2)ccc2c1CCCC2=O [Compound 29, 4-({5-[2-({1-[(isopropylsulfonyl)methyl]-5-oxo-5,6,7,8-tetrahydro-2-naphthalenyl}oxy)ethyl]-1H-imidazol-1-yl}methyl)benzonitrile] |  | 0.5 nM | 
4 | CC[C@H](C)[C@@H](CO[C@@H](Cc1ccccc1)C(=O)N[C@@H](CCS(C)(=O)=O)C(=O)OC(C)C)NC[C@@H](N)CS [L-744,832] |  |  | tumor regression [2]: caused tumor regression
5 | COC(=O)[C@H](CCSC)NC(=O)[C@H](/C=C\[C@@H](/C=C/[C@@H](N)CS)C(C)C)Cc1ccccc1 [Compound B1086] |  |  | tumor growth inhibition [3]: inhibit tumor growth
6 | CSCC[C@H](NC(=O)c1ccc(NC[C@@H](N)CS)cc1-c1ccccc1)C(=O)O [FTI276] |  |  | tumor growth [4]: selectively block tumor growth
7 | N#Cc1ccc(Cn2cncc2CCOc2ccc3c(c2CCc2ccccc2)CCCC3=O)cc1 [Compound 4, 4-{[5-(2-{[5-oxo-1-(2-phenylethyl)-5,6,7,8-tetrahydro-2-naphthalenyl]oxy}ethyl)-1H-imidazol-1-yl]methyl}benzonitrile] |  | 0.3 nM | 
8 | N#Cc1ccc(Cn2cncc2CCOc2ccc3c(c2CS(=O)(=O)c2ccccn2)CCCC3=O)cc1 [Compound 28, 4-({5-[2-({5-oxo-1-[(2-pyridinylsulfonyl)methyl]-5,6,7,8-tetrahydro-2-naphthalenyl}oxy)ethyl]-1H-imidazol-1-yl}methyl)benzonitrile] |  | 0.3 nM | 
9 | CCCc1c(OCCc2cncn2Cc2ccccc2)ccc2c1CCCC2=O [Compound 2, 6-[2-(3-benzyl-3H-imidazol-4-yl)-ethoxy]-5-propyl-3,4-dihydro-2H-naphthalen-1-one] | 870 nM | 1390 nM | 
